What all share (experiment): growth of human tumour cells (NCI), 48 h
Assay [1] concerns A549.
Assay [2] deals with ACHN.
The test system of assay [3] is CCRF-CEM.
Assay [4] deals with HCC 2998.
The test system of assay [5] is HCT-15.
In assay [6] the test system is HL-60.
The test system of assay [7] is HOP-62.
The test system of assay [8] is HOP-92.
Assay [9] deals with HT-29.
Assay [10] deals with Hs-578T.
For assay [11], the system named is K562.
The subject of assay [12] is M14.
The subject of assay [13] is Malme-3M.
Assay [14] concerns OVCAR-8.
In assay [15] the test system is SF-268.
The subject of assay [16] is SW-620.
In assay [17] the test system is U-251.
Assay [18] deals with KM12.
Assay [19] relates to MDA-N.
The subject of assay [20] is SN12C.

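Cultured in 96-well plates, cells were exposed to test compound for 48 hours across five concentrations. Here, GI50 denotes the concentration required for 50% inhibition of growth.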 Calls of active or inactive are those of the source. Cut-off read from the data, not from the text of the source: active = GI50 up to about 1.1 µM and inactive = higher.

With `COC(O)C(=O)c1c2c(cc3c1CC1(Cc4cc5c(cc4C1)CCC5)C3)CCC2` (configuration not stated), the GI50 in assay [1] was 16.8 µM (inactive); in assay [2], 15.7 µM (inactive); in assay [3], 4.33 µM (inactive); in assay [4] it was 23.6 µM (inactive); in [5], 20.7 µM; in assay [6], 23.2 µM (inactive). The GI50 was 15.9 µM (inactive) in assay [7]; 15.7 µM (inactive) in assay [8]; 9.33 µM (inactive) in [9]; 20.4 µM (inactive) in [10]; 13.2 µM (inactive) in assay [11]; 16.6 µM (inactive) in [12]. Moreover, the GI50 is 16.3 µM (inactive) in [13]; 18.3 µM (inactive) in assay [14]; 20.5 µM (inactive) in assay [15]; 16.2 µM (inactive) in assay [16]; 11.6 µM (inactive) in [17].
For `CN1CCN(Cc2ccccc2)CC1CC#N` (configuration not stated), the GI50 in assay [1] was > 100 µM (inactive); in [2], > 100 µM (inactive); in assay [3], > 100 µM (inactive); in assay [4] it was > 100 µM (inactive); in assay [5], over 100 µM; in [6] it was > 100 µM (inactive). In addition, the GI50 in assay [7], in assay [9], in assay [11], in [18], in assay [19] and in [13] was > 100 µM (inactive) throughout. Moreover, the GI50 in assay [14], in assay [15], in [20], in assay [16] and in assay [17] was > 100 µM (inactive) in each case.
As to `COC(=O)C1=C2SCc3cccc(c3)CSC3=C(C(=O)OC)SC(=C(S2)S1)S3`, the GI50 was > 100 µM (inactive) in assay [1]; > 100 µM (inactive) in assay [2]; > 100 µM (inactive) in assay [3]; > 100 µM (inactive) in [4]; 25.9 µM (inactive) in [6]; > 100 µM (inactive) in [7]. The GI50 in assay [11] was > 100 µM (inactive); in assay [18] it was > 100 µM (inactive); in [12], 82.6 µM (inactive); in assay [19], 35.2 µM (inactive); in assay [20], 65.9 µM (inactive); in assay [16], > 100 µM (inactive). Further, the GI50 in [17] is 40.2 µM (inactive).
`Clc1ccc(-c2nn3c(C45CC6CC(CC(C6)C4)C5)nnc3s2)cc1`: the GI50 is > 100 µM (inactive) in assay [1]; 69.5 µM (inactive) in assay [2]; > 100 µM (inactive) in assay [3]; > 100 µM (inactive) in assay [4]; over 100 µM in assay [5]; > 100 µM (inactive) in assay [6]. Moreover, the GI50 in assay [7], in [8], in assay [9], in assay [10], in [11] and in assay [18] was > 100 µM (inactive) throughout. The GI50 in assay [12], in assay [13], in assay [15], in assay [20], in [16] and in assay [17] was > 100 µM (inactive) in each case.
As for `Clc1ccc(/C=C/c2nc(-c3ccccc3)cn3c2nc2ccccc23)cc1Cl`, the GI50 in [1] was 59.6 µM (inactive); in assay [2] it was 49.5 µM (inactive); in assay [3], 20.1 µM (inactive); in assay [4] it was 43.5 µM (inactive); in [5], 34.3 µM; in assay [6], 19.6 µM (inactive). Moreover, the GI50 in assay [7] was 59.2 µM (inactive); in assay [8] it was 70 µM (inactive); in [9] it was 37.3 µM (inactive); in [11], 43.6 µM (inactive); in assay [18] it was 31.4 µM (inactive); in assay [12], 56.4 µM (inactive). In addition, the GI50 in [19] was 60 µM (inactive); in assay [15], 59 µM (inactive); in [20] it was 38.1 µM (inactive); in [16], 41.6 µM (inactive); in [17], 42 µM (inactive).
For the molecule `C/C(=C\COP(=O)(O)OP(=O)(O)O)CCCOCc1ccccc1`, the GI50 in [1] is > 100 µM (inactive); in assay [2], > 100 µM (inactive); in [3], < 0.01 µM (active); in [5], over 100 µM; in [6], 61.7 µM (inactive); in assay [7], > 100 µM (inactive). Besides, the GI50 in assay [9], in [10], in assay [11], in assay [18], in assay [12] and in [13] was > 100 µM (inactive) throughout. The GI50 in assay [14], in assay [15], in assay [20], in assay [16] and in assay [17] was > 100 µM (inactive) throughout.
As for `COC(=O)[C@H](C)N1C(=O)N[C@@H](C(C)C)C1=O`, the GI50 is > 100 µM (inactive) in assay [1]; > 100 µM (inactive) in [2]; > 100 µM (inactive) in assay [3]; > 100 µM (inactive) in [4]; over 100 µM in [5]; > 100 µM (inactive) in assay [7]. The GI50 in [8], in assay [9], in assay [11], in [18], in assay [12] and in assay [19] was > 100 µM (inactive) in each case. For the same molecule, the GI50 in assay [13], in assay [14], in [20], in assay [16] and in assay [17] was > 100 µM (inactive) each time.
In the case of `C[C@]12CC[C@H]3[C@@H](CC=C4C[C@@H](N5CCCC5)CC[C@@]43C)[C@@H]1C/C(=C\c1ccc([N+](=O)[O-])cc1)[C@@H]2O`, the GI50 in assay [1] is 17.1 µM (inactive); in assay [2] it was 15.9 µM (inactive); in assay [3] it was 3.21 µM (inactive); in [5], 13.8 µM; in assay [7] it was 17.9 µM (inactive); in [8], 13 µM (inactive). Further, the GI50 in assay [9] was 13.2 µM (inactive); in assay [10], 18.5 µM (inactive); in assay [18], 16.2 µM (inactive); in assay [12], 16.6 µM (inactive); in assay [13], 16.5 µM (inactive); in assay [15] it was 17.5 µM (inactive). Moreover, the results for the GI50 in assay [20], in assay [16] and in assay [17] were 14.4 µM (inactive), 17.9 µM (inactive) and 12.7 µM (inactive), respectively.
Turning to `CC(=O)OCC1OC(n2c(=O)n(-c3ccccc3)c(=O)c3ccccc32)C(OC(C)=O)C(OC(C)=O)C1OC(C)=O` (configuration not stated), the GI50 in assay [1] is > 100 µM (inactive); in assay [2] it was > 100 µM (inactive); in assay [3] it was 53.7 µM (inactive); in assay [4], > 100 µM (inactive); in assay [5], over 100 µM; in assay [6] it was > 100 µM (inactive). In addition, the GI50 in assay [7], in [8], in assay [9], in assay [11], in [18] and in assay [12] was > 100 µM (inactive) each time. The GI50 in assay [13], in assay [14], in assay [15], in assay [20], in assay [16] and in [17] was > 100 µM (inactive) throughout.
In the case of `CC1=CCS(=O)(=O)C1C(O)C1=C(C)CCCC1(C)C` (configuration not stated), the GI50 in assay [1] was 68.5 µM (inactive); in assay [2], > 100 µM (inactive); in [3] it was 71.3 µM (inactive); in assay [4], > 100 µM (inactive); in assay [5], over 100 µM; in assay [6], 35.3 µM (inactive). Also, the GI50 in assay [7] is > 100 µM (inactive); in assay [9], > 100 µM (inactive); in assay [11], 43.1 µM (inactive); in assay [18], 59.7 µM (inactive); in assay [12], 69.2 µM (inactive); in assay [19], 63.1 µM (inactive). The GI50 in assay [13] is 60 µM (inactive); in [14], > 100 µM (inactive); in assay [20], > 100 µM (inactive); in [16], > 100 µM (inactive); in [17], 56.8 µM (inactive).
On to `NC1=NN(c2ccccc2)C(=O)C1C(=O)C(=O)Nc1cccc(C(F)(F)F)c1` (configuration not stated), for which the GI50 in assay [1] was > 100 µM (inactive); in [2], > 100 µM (inactive); in [3], > 100 µM (inactive); in assay [4], > 100 µM (inactive); in assay [5] it was over 100 µM; in [6], 89.3 µM (inactive). The GI50 in assay [7] was > 100 µM (inactive); in assay [8] it was 23.7 µM (inactive); in assay [9], > 100 µM (inactive); in [11], 86.1 µM (inactive); in assay [18] it was > 100 µM (inactive); in [12], > 100 µM (inactive). In addition, the GI50 in assay [13], in assay [14], in assay [15], in assay [20], in assay [16] and in assay [17] was > 100 µM (inactive) in each case.
As to `O=c1oc2c(O)c(O)c(O)c3c(=O)oc4c(O)c(O)cc1c4c23` [FLAVELLAGIC ACID], the GI50 was > 100 µM (inactive) in assay [1]; 73.1 µM (inactive) in [2]; 29.2 µM (inactive) in assay [3]; > 100 µM (inactive) in assay [4]; over 100 µM in assay [5]; 36.6 µM (inactive) in assay [6]. The GI50 in assay [7] was > 100 µM (inactive); in [8], > 100 µM (inactive); in [9], 39.5 µM (inactive); in [11] it was 25.6 µM (inactive); in assay [18] it was > 100 µM (inactive); in assay [12], > 100 µM (inactive). Besides, the GI50 in assay [13] was > 100 µM (inactive); in [14] it was 71.4 µM (inactive); in assay [15], > 100 µM (inactive); in assay [20], 18.6 µM (inactive); in assay [16], 97.7 µM (inactive); in assay [17], 19.3 µM (inactive).
